Laboratory results from paper PMC8617976, “Inhibitory Potential of New Phenolic Hydrazide-Hydrazones with a Decoy Substrate Fragment towards Laccase from a Phytopathogenic Fungus: SAR and Molecular Docking Studies” (International Journal of Molecular Sciences, 2021).

Experiments:
[1] = target: T1, laccase from Trametes versicolor; assay: syringaldazine oxidation at […] nm, Lineweaver-Burk; assay type: biochemical; conditions: McIlvaine buffer pH 5.3, 25 °C, 30 min preincubation, methanol co-solvent
T1 construct: gene LCC2; PDB 1GYC (laccase 2) used for docking only

[2] = target: T1, laccase from Trametes versicolor; assay: syringaldazine oxidation at […] nm, Lineweaver-Burk; assay type: biochemical; conditions: McIlvaine buffer pH 5.3, 25 °C, 30 min preincubation, methanol co-solvent, printed as not active up to 1000 µM, type not determined
[3] = mixed type, non-competitive component

For `CC(C)(C)c1cc(/C=N/NC(=O)c2ccccc2O)c(O)c(C(C)(C)C)c1` [4g, 2-Hydroxy-N’-[(E)-(3,5-di-tert-butyl-2-hydroxyphenyl)methylidene]benzohydrazide], which Ki ([1]; non-competitive) is on record?
Its Ki is 52.6 µM.

`Cc1cc(/C=N/NC(=O)Cc2ccc(O)cc2)c(O)c(C(C)(C)C)c1` [3b, 2-(4-Hydroxyphenyl)-N’-[(E)-(3-tert-butyl-2-hydroxy-5-methylphenyl)methylidene]acetohydrazide] was tested. Which Ki ([1]; uncompetitive, text b18 prints 49.1) did it give?
The Ki was 49.2 µM.

How did the Ki ([1]; competitive) turn out when `CC(C)(C)c1cc(/C=N/NC(=O)c2cc(O)cc(O)c2)c(O)c(C(C)(C)C)c1` [4i, 3,5-Dihydroxy-N’-[(E)-(3,5-di-tert-butyl-2-hydroxyphenyl)methylidene]benzohydrazide] was run?
The Ki was 55.6 µM.

With `COc1ccc(C(=O)N/N=C/c2cc(C)cc(C(C)(C)C)c2O)cc1` [4d, 4-Methoxy-N’-[(E)-(3-tert-butyl-2-hydroxy-5-methylphenyl)methylidene]benzohydrazide] as the compound, how does the Ki ([1]; competitive) read?
Its Ki is 25.8 µM.

How did the Ki ([1]; uncompetitive) turn out when `CC(C)(C)c1cccc(/C=N/NC(=O)c2ccccc2O)c1O` [4j, 2-Hydroxy-N’-[(E)-(3-tert-butyl-2-hydroxyphenyl)methylidene]benzohydrazide] was run?
The Ki was 65.6 µM.

For `COc1cccc(C(=O)N/N=C/c2cc(C)cc(C(C)(C)C)c2O)c1` [4c, 3-Methoxy-N’-[(E)-(3-tert-butyl-2-hydroxy-5-methylphenyl)methylidene]benzohydrazide], which Ki ([1]; non-competitive) is on record?
The Ki was 17.4 µM.

With `CC(=O)NN=Cc1cc(C)cc(C(C)(C)C)c1O` (mixture of isomers) [3a, (E/Z)-N’-(3-tert-butyl-2-hydroxy-5-methyl-benzylidene)acetohydrazide] as the compound, how does the KI [2] read?
Its KI is over 1000 µM.

Which Ki [1, 3] does the source give for `O=C(N/N=C/c1cccc(-c2ccccc2)c1O)c1ccc2ccccc2c1O` [5b, N’-[(E)-(2-hydroxy-3-phenylphenyl)methylidene]-2-(1-hydroxynaphtho)hydrazide] here?
Its Ki is 24.3 µM.

How did the Ki ([1]; non-competitive) turn out when `O=C(N/N=C/c1cccc(-c2ccccc2)c1O)c1cc(O)cc(O)c1` [4o, 3,5-Dihydroxy-N’-[(E)-(2-hydroxy-3-phenyl-phenyl)methylidene]benzohydrazide] was run?
The Ki was 69.9 µM.

Which Ki ([1]; uncompetitive) does the source give for `Cc1cc(/C=N/NC(=O)c2ccccc2O)c(O)c(C(C)(C)C)c1` [4e, 2-Hydroxy-N’-[(E)-(3-tert-butyl-2-hydroxy-5-methylphenyl)methylidene]benzohydrazide] here?
Its Ki is 150 µM.

With `CC(C)(C)c1cccc(/C=N/NC(=O)c2ccc3ccccc3c2O)c1O` [5d, N’-[(E)-(3-tert-butyl-2-hydroxy-phenyl)methylidene]-2-(1-hydroxynaphtho)hydrazide] as the compound, how does the Ki [1, 3] read?
The Ki was 55.6 µM.

`O=C(N/N=C/c1cccc(-c2ccccc2)c1O)c1ccccc1O` [4m, 2-Hydroxy-N’-[(E)-(2-hydroxy-3-phenyl-phenyl)methylidene]benzohydrazide] was tested. Which Ki ([1]; mixed type, competitive component) did it give?
Its Ki is 26.4 µM.

How did the Ki [1, 3] turn out when `Cc1cc(/C=N/NC(=O)c2ccc3ccccc3c2O)c(O)c(C(C)(C)C)c1` [5a, N’-[(E)-(3-tert-butyl-2-hydroxy-5-methylphenyl)methylidene]-2-(1-hydroxynaphtho)hydrazide] was run?
Its Ki is 8 µM.

For `O=C(N/N=C/c1cccc(-c2ccccc2)c1O)c1cccc(O)c1` [4n, 3-Hydroxy-N’-[(E)-(2-hydroxy-3-phenyl-phenyl)methylidene]benzohydrazide], which Ki [1, 3] is on record?
Its Ki is 139 µM.

How did the Ki ([1]; non-competitive) turn out when `CC(C)(C)c1cc(/C=N/NC(=O)c2ccc3ccccc3c2O)c(O)c(C(C)(C)C)c1` [5c, N’-[(E)-(3,5-di-tert-butyl-2-hydroxy-phenyl)methylidene]-2-(1-hydroxynaphtho)hydrazide monomethanolate] was run?
The Ki was 16.2 µM.

Which Ki ([1]; competitive) does the source give for `CC(C)(C)c1cc(/C=N/NC(=O)c2cccc(O)c2)c(O)c(C(C)(C)C)c1` [4h, 3-Hydroxy-N’-[(E)-(3,5-di-tert-butyl-2-hydroxyphenyl)methylidene]benzohydrazide] here?
The Ki was 18.9 µM.

Which Ki ([1]; competitive) does the source give for `CC(C)(C)c1cccc(/C=N/NC(=O)c2cc(O)cc(O)c2)c1O` [4l, 3,5-Dihydroxy-N’-[(E)-(3-tert-butyl-2-hydroxyphenyl)methylidene]benzohydrazide] here?
The Ki was 38 µM.

How did the Ki ([1]; competitive) turn out when `CC(C)(C)c1cccc(/C=N/NC(=O)c2cccc(O)c2)c1O` [4k, 3-Hydroxy-N’-[(E)-(3-tert-butyl-2-hydroxyphenyl)methylidene]benzohydrazide] was run?
Its Ki is 35.8 µM.

With `Cc1cc(/C=N/NC(=O)c2cc(O)cc(O)c2)c(O)c(C(C)(C)C)c1` [4f, 3,5-Dihydroxy-N’-[(E)-(3-tert-butyl-2-hydroxy-5-methylphenyl)methylidene]benzohydrazide] as the compound, how does the Ki ([1]; competitive) read?
The Ki was 32.3 µM.

How did the Ki ([1]; competitive) turn out when `Cc1cc(/C=N/NC(=O)c2ccccc2)c(O)c(C(C)(C)C)c1` [4b, N’-[(E)-(3-tert-butyl-2-hydroxy-5-methylphenyl)methylidene]benzohydrazide] was run?
The Ki was 82 µM.
